How the values were obtained:
Drosophila OR10a = molecular target: T1, Drosophila OR10a (Drosophila melanogaster, UniProt Q9VYZ1); experiment: Calcium ion fluorescence (GCaMP6) assay, OR10a stable HEK293 cell line; assay type: cell-based; conditions: 50 µM, OR10a clone G5, single plate 2019.12.05
T1 construct: expressed in transfected cells
T1 sequence (Q9VYZ1 1-406): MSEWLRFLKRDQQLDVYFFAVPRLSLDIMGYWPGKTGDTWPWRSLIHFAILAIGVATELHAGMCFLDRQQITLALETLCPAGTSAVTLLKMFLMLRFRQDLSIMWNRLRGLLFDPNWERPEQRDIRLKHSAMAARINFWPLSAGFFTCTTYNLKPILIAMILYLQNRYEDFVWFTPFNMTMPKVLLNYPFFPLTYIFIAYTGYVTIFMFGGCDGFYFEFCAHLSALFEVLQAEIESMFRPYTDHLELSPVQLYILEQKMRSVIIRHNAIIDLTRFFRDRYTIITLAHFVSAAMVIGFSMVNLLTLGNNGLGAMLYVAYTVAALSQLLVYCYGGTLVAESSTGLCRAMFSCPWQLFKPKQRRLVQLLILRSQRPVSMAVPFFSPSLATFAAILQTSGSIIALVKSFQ
T1 sequence (Q9VNB5 1-486 partner): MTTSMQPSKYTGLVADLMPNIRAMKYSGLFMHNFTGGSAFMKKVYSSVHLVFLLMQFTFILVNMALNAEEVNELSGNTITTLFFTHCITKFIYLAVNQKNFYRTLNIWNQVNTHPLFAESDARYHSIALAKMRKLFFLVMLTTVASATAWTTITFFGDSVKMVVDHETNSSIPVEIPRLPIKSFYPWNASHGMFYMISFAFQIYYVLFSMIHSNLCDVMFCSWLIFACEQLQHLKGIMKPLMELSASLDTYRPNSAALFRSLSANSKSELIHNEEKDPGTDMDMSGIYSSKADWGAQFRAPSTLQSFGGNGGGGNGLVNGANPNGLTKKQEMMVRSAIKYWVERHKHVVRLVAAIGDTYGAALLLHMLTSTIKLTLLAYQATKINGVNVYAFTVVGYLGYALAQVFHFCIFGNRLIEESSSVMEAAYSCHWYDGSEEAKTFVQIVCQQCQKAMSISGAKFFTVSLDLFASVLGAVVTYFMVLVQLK
Experimental: (§1) These VUAA1 normalized ∆F values were used to compare the different receptors and ligands.
(§2) The concentration-dependent effect of the reference ligands on their cognate cell lines was examined in more detail. Twelve different ligand concentrations were measured on each cell line in an overall 0.01 μM to 100 μM concentration range with 5 repetitions with three technical replicates each time.
(§3) Twelve thousand to 18,000 cells were plated into each well of a black wall, transparent bottom 384-well microplate (Greiner) 48 h or 72 h before the measurements and were simultaneously treated with 1 μg/mL doxycycline. […] The plate has 24 columns, thus we could record responses in up to eight different cell lines in each plate. On the day of the experiment, the growth medium was replaced with 20 µL assay buffer/well (140 mM NaCl, 5 mM KCl, 2 mM CaCl2, 1 mM MgCl2, 5 mM HEPES-Na, 20 mM glucose, pH 7.3, 340 mOsm). […] Baseline fluorescence (F0) was recorded for 5 s, after which 7 µL VOC buffer (140 mM NaCl, 5 mM KCl, 2 mM CaCl2, 1 mM MgCl2, 5 mM HEPES-Na, 31 mM glucose, 0.1% DMSO, pH 7.3, 340 mOsm) was injected into each well in one row and the fluorescence response was recorded for an additional 30 s, at a rate of one read/sec. VOC solutions (VOC buffer with 4× concentration of the final measured VOC concentration, 9 µL/well was injected) were measured on the same wells in a second round with the same protocol. Each individual concentration of a specific VOC sample was recorded in three wells for the same cell line on the same microplate. The raw data were exported in xls file format, F0 and FMAX values, and the fluorescence intensity changes (∆F) were calculated in Excel (Microsoft) (Supplementary file Data summary.xlsx) using the following equation: ΔF=FMAX-F0/F0 (see also Fig. 1C). On each plate, we recorded the response of each cell line to 50 µM VUAA1. The average of these ∆F values of each cell line were used to calculate the VUAA1-normalized values for the rest of the plate, by dividing VOC response ∆F values by the average VUAA1 response ∆F value of the corresponding OR cell line. Each VOC-OR combination was measured three times as technical replicates. […] The average of these replicates were used as one ∆F and VUAA1-normalized ∆F in the following analysis.
(§4) In the next rows we tested the reference VOCs (or other VOCs known to activate the corresponding cell lines), in order to test if all cell lines are responsive. The remaining rows were used to test VOCs with unknown effect.
(§5) The recorded FMAX, F0, ∆F, VUAA1-normalized ∆F values, as well as the OR name, the name of the tested sample, and the final concentration for each well were copied into supplementary file Data summary.xlsx, that was used to summarize all the plates recorded. Here, the averages of the measurements were calculated for each receptor-VOC-concentration combination.

[1] = system: T2, OR cell lines (OR + ORCO); experiment: Maximum fluorescence change of the OR cell lines, long term stability testing / VUAA1 check; assay type: cell-based, Drosophila melanogaster
T2 construct: expressed in transfected cells
Experimental: as §1
Twelve thousand to 18,000 cells were plated into each well of a black wall, transparent bottom 384-well microplate (Greiner) 48 h or 72 h before the measurements and were simultaneously treated with 1 μg/mL doxycycline. […] The plate has 24 columns, thus we could record responses in up to eight different cell lines in each plate. On the day of the experiment, the growth medium was replaced with 20 µL assay buffer/well (140 mM NaCl, 5 mM KCl, 2 mM CaCl2, 1 mM MgCl2, 5 mM HEPES-Na, 20 mM glucose, pH 7.3, 340 mOsm). […] Baseline fluorescence (F0) was recorded for 5 s, after which 7 µL VOC buffer (140 mM NaCl, 5 mM KCl, 2 mM CaCl2, 1 mM MgCl2, 5 mM HEPES-Na, 31 mM glucose, 0.1% DMSO, pH 7.3, 340 mOsm) was injected into each well in one row and the fluorescence response was recorded for an additional 30 s, at a rate of one read/sec. VOC solutions (VOC buffer with 4× concentration of the final measured VOC concentration, 9 µL/well was injected) were measured on the same wells in a second round with the same protocol. Each individual concentration of a specific VOC sample was recorded in three wells for the same cell line on the same microplate. […] On each plate, we recorded the response of each cell line to 50 µM VUAA1. […] Each VOC-OR combination was measured three times as technical replicates. […]

ORCO = molecular target: T3, ORCO (Drosophila melanogaster, UniProt Q9VNB5); experiment: Origin of Ca2+ test, (GCaMP6-GSG)ORCO cell line; assay type: cell-based; conditions: assay buffer lacking Ca2+, and lacking Ca2+ and containing EGTA
T3 sequence (Q9VNB5 1-486): T1 sequence (Q9VNB5 1-486 partner)
From the text: We tested for the origin of the Ca^2+ ions on two cell lines, OR47a and (GCaMP6-GSG)ORCO, with assay buffer lacking Ca^2+ and assay buffer lacking Ca^2+ and containing EGTA.

Drosophila OR47a = molecular target: T4, Drosophila OR47a (Drosophila melanogaster, UniProt P81921); experiment: Calcium ion fluorescence (GCaMP6) assay, OR47a stable HEK293 cell line; assay type: cell-based; conditions: OR47a cell line; assay buffer lacking Ca2+, and lacking Ca2+ and containing EGTA
T4 construct: expressed in transfected cells
T4 sequence (P81921 1-385): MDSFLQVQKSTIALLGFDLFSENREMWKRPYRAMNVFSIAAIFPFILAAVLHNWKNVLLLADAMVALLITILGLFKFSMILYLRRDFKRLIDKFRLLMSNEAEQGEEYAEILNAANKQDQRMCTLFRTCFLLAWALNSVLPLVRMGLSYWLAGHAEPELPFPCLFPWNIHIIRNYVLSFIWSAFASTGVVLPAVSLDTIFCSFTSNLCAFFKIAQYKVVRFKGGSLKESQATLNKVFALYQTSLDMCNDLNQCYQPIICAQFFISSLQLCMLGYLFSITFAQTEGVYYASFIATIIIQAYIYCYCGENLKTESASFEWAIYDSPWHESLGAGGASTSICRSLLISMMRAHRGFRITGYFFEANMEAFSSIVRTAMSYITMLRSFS
T4 sequence (Q9VNB5 1-486 partner): T1 sequence (Q9VNB5 1-486 partner)
Experimental: as §1, §2, §3, §4, §5

With `CCc1ccc(NC(=O)CSc2nnc(-c3cccnc3)n2CC)cc1` [VUAA1, reference compound] as the compound, how does the “DF norm, all technical replicates” value (Drosophila OR10a) read?
Its value is 1.

What about the “DF norm, outlier technical replicates removed” value (Drosophila OR10a) of the same compound?
The value was 1.

What about the “DF, outlier technical replicates removed” value (Drosophila OR10a) of the same compound?
Its value is 1.743.

And the “DF, all technical replicates” value (Drosophila OR10a; xc+0.1%DMSO)?
Its value is 1.743.

What about the “peaks of fluorescence intensity change” value ([1]; ORCO agonist VUAA1, highest over OR cell lines) of the same compound?
The value was ≤ 462%.

What about the “response of the cell lines to VUAA1” value ([1]; all cell lines, including the four non-responding OR lines) of the same compound?
The value was “responded”.

And the “response in assay buffer lacking Ca2+” value (ORCO)?
Its value is “Neither of the cell lines responded”.

And the “response in assay buffer lacking Ca2+” value (Drosophila OR47a)?
Its value is “Neither of the cell lines responded”.
